Legend:
[1] = Critical micelle concentration (CMC) measurement, dye micellization; assay type: physicochemical; details: fluorescein dye micellization in water, pH 6.9, room temperature
Procedure: Dye micellization was carried out with a modified version of the method described by Eliyahu et al., Novel dextran-spermine conjugates as transfecting agents: comparing water-soluble and micellar polymers. […] Experiments were carried out on 96-well microtiter plates (excitation at 485 nm, emission at 535 nm). Since the emission of fluorescein is pH-dependent, the pH of the mixture was kept constant at 6.9. The CMC range was determined as the concentration range where the first statistically significant increase in fluorescence was detected.

[2] = molecular target: T1, FAAH (Sus scrofa, UniProt Q9TUI8); experiment: Fatty acid amide hydrolase (FAAH) inhibition, pig brain homogenate (assay D); assay type: biochemical
T1 construct: 165 µl of diluted pig brain homogenate; from tissue; host or cells: pig brain homogenate
T1 sequence (Q9TUI8 1-579): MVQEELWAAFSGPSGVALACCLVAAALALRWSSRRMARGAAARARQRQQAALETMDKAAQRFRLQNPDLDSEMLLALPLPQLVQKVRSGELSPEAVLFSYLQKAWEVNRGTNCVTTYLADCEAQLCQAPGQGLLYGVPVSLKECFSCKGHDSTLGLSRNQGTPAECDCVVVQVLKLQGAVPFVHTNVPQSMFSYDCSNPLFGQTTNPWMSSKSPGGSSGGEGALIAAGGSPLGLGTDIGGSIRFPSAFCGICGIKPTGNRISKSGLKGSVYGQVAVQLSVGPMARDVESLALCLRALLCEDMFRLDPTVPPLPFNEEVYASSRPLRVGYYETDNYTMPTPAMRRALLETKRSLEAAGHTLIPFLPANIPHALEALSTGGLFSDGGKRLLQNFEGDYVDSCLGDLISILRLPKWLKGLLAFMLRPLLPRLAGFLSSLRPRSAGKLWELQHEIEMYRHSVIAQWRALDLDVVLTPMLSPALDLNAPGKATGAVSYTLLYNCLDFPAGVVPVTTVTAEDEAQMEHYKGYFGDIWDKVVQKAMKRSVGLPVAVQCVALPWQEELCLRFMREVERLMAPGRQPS
Procedure: FAAH activity was assessed using pig brain homogenate according to the method described by Omeir et al., Arachidonoyl ethanolamide-[1,2-14C] as a substrate for anandamide amidase. Life Sci. 1995;56(23-24):1999-2005, and adapted by Fowler et al., Ibuprofen inhibits rat brain deamidation of anandamide at pharmacologically relevant concentrations. Mode of inhibition and structure-activity relationship. J Pharmacol Exp Ther. 1997 Nov;283(2):729-34. Briefly, 10 µl of test compounds at the adequate concentration or solvent were incubated at 37°C for 20 min with 165 µl of diluted pig brain homogenate in 10 mM Tris-HCl and 1 mM EDTA, pH 7.6 (corresponding to 100 µg/ml of total protein), 1% w/v fatty acid free BSA (Sigma, San Louis, MO, US) and 25 µl of a mixture 1:1 of nonradioactive AEA [^3H]-AEA (60 Ci mmol^-1) (concentration in the assay was 2 µM). Successively, 400 µl of a mixture 1:1 (v/v) of methanol:chloroform was added at each sample and, after vigorous vortexing, aqueous and organic phases were separated by centrifugation at 10000 rpm for 10 min. The radioactivity associated to the [^3H]-ethanolamine (produced by FAAH-catalysed breakdown of [^3H]-AEA) was measured upon addition of 3 ml of Ultima Gold scintillation liquid (Perkin Elmer, Waltham, MA, US) to 200 µl of the aqueous (upper) phase, using a Beckman LS6500 scintillation counter. Results were expressed as % of FAAH activity vs. pig brain homogenate treated only with solvent.

[3] = molecular target: T2, human recombinant Fatty acid amide hydrolase (Homo sapiens, UniProt O00519); experiment: Inhibition of human recombinant FAAH, fluorometric method (assay G); assay type: biochemical; details: human recombinant enzyme, AMC-anandamide substrate (assay G)
T2 sequence (O00519 1-579): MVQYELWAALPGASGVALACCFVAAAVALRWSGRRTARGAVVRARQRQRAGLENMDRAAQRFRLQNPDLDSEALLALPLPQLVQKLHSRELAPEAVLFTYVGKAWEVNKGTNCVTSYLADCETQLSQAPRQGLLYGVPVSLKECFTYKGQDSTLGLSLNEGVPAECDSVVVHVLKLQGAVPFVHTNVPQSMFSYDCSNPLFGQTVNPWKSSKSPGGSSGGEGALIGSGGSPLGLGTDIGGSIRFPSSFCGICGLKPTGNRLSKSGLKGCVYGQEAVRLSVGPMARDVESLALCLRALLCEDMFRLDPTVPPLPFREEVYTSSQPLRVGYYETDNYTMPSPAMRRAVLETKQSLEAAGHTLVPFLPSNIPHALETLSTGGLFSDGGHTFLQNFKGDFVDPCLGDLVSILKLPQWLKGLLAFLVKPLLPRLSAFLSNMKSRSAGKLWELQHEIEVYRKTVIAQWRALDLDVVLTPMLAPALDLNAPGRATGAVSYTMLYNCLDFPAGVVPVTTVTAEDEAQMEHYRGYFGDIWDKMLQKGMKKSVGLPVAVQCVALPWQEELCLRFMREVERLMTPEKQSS
Procedure: FAAH activity is measured using the modified method described by Omeir et al., Arachidonoyl ethanolamide-[1,2-14C] as a substrate for anandamide amidase. Life Sci. 1995;56(23-24):1999-2005. Human recombinant enzyme is preincubated with reference compound (methylarachidonlyfluorophosphonate, MAFP) and test compounds for 30 min at room temperature in 50 mM Tris containing 1 mM EDTA and 0.1% fatty acid free BSA (pH 8.0). Substrate (7-amino-4-methyl coumarin-arachidonamide, AMC-anandamide) is then added and incubated for 30 min at room temperature. The reaction is stopped by the addition of 2.5 µl of 10 µM URB597. Released 7-amino-4-methyl coumarin (AMC) is detected by fluorometry in order to ascertain any interactions of test compounds with the FAAH enzyme.

[4] = tested on: Anandamide transport; experiment: Anandamide transport (human) cellular functional assay (assay F); assay type: cell-based; details: human U-937 cells, 0.1 µM [3H]-Anandamide, 20 min (assay F)
Procedure: Anandamide transport is determined using human U-937 cells as receptor source. [3H]-Anandamide (0.1 Ci/mmol), final concentration 0.1 µM is used as substrate. AM-404 is used as reference compound. Reactions are carried out in KRH buffer (pH 7.4) at 37°C for 20 min. The reaction is terminated by rapid vacuum filtration onto glass fiber filters. Radioactivity trapped onto filters is determined and compared to control values in order to ascertain any interactions of test compound with anandamide uptake (Hiiliard C.J. The movement of N-arachidonylethanolamide (anandamide) across cellular membranes. Chem. Physics Lipids. 2008;108:123-134, with modifications).

[5] = tested on: Arachidonoylethanolamide Transport (AEAT); experiment: Cellular uptake of [3H]-AEA in U937 cells (assay C); assay type: cell-based; details: Homo sapiens, U-937; [3H]-AEA uptake, assay C (Tables 2 and 3)

Structure (SMILES) | FAAH inhibition at 1 µM [3] | AEAT inhibition at 1 µM [4] | other results
CCCCCCC/C=C/C=C/C(=O)NCc1ccoc1 [Example 4, (2E,4E)-N-(furan-3-ylmethyl)dodeca-2,4-diene amide] |  |  | CMC [1]: < 3 µM; inhibition at 2 µM ([2]; read-out: max. inhibition of FAAH activity): 40%
CCCCCCC/C=C/C=C/C(=O)NCc1cccn1C [Example 5] |  |  | CMC [1]: < 1 µM; inhibition at 1 µM ([2]; read-out: maximal inhibition of FAAH activity): 32%
CCCCCCC/C=C/C=C/C(=O)NCc1ccc(OC)cc1 [Example 7, (2E,4E)-N-(4-methoxybenzyl)dodeca-2,4-diene amide] | 6 % of control | 28 % of control | effect on FAAH activity in combination with the FAAH inhibitor URB597 ([2]; Figure 3, low nM concentrations): synergistic effects
CCCCCCC/C=C/C=C/C(=O)NCCc1ccco1 [Example 16] | 42 % of control | 57 % of control | EC50 [5]: 890 ± 400 nM
CCCCCCC/C=C/C=C/C(=O)NCCc1ccsc1 [Example 19] | 53 % of control | 34 % of control | EC50 [5]: 520 ± 470 nM
CCCCCCC/C=C/C=C/C(=O)Nc1nccs1 [Example 20] | -16 % of control | 47 % of control | EC50 [5]: 780 ± 250 nM
CCCCCCC/C=C/C=C/C(=O)Nc1ccccc1 [Example 24] | 2 % of control | 30 % of control | 
CCCCCCC/C=C/C=C/C(=O)NCc1ccccc1 [Example 25] | 2 % of control | 47 % of control | 
CCCCCCC/C=C/C=C/C(=O)Nc1nc2ccccc2s1 [Example 35] | 61 % of control | 42 % of control | 
CCCCCCC/C=C/C=C/C(=O)Nc1ccc(C2=NCCS2)cc1 [Example 37] | 9 % of control | 38 % of control | 
CCCCCCC/C=C/C=C/C(=O)NCc1nnn(C(=O)N(C)C)n1 [Example 39] | 101 % of control | 120 % of control | 
CCCCCCC/C=C/C=C/C(=O)NCC(C)O (stereo not shown) [Example 41] | 45 % of control | 27 % of control | 
CCCCCCC/C=C/C=C/C(=O)NCCc1ccnc(OC)c1 [Example 47] | 6 % of control | 50 % of control | 
CCCCCCC/C=C/C=C/C(=O)NC(CO)Cc1cccs1 (stereo not shown) [Example 49] | 25 % of control | 25 % of control | 
CCCCCCC/C=C/C=C/C(=O)NCC(O)c1ccc(OC)cc1 (stereo not shown) [Example 56] | -1 % of control | 36 % of control | 
CCCCCCC/C=C/C=C/C(=O)NCCc1ccccn1 [Example 68] | -2 % of control | 41 % of control | 
CCCCCCC/C=C/C=C/C(=O)Nc1nc2cc(C)c(C)cc2s1 [Example 72] | 30 % of control | 37 % of control | 
CCCCCCC/C=C/C=C/C(=O)Nc1ccc(Oc2ccc(C(F)(F)F)cc2)cc1 [Example 84] | 30 % of control | 30 % of control | 
